Results on 73 molecules are retold here after ChEMBL document CHEMBL3507680, “University of Dundee, Gates Library screen for HepG2 cell viability”.

Molecules are shown by their SMILES.

This data set can be described thus: Human HepG2 cell viability assay in 384 well format. Conditions: HepG2 cells, read-out: Inhibition. Set-up: dose 125 nL, time 70.5 hour; cytotoxicity at 70.5 h: concentration not given beside the values. It is filed as toxicity, cell-based.
`CC(O)CN1CCN(C(=O)c2sccc2C2CC2)CC1` (stereo not drawn): the cytotoxicity at 70.5 h was -5.67%. For `COC(=O)CC(NC(=O)c1ccc(OC)cc1OC)c1cccs1` (stereo not drawn), the cytotoxicity at 70.5 h was -11.2%.

`COc1ccc(C(=O)NC(CC(=O)O)c2cccs2)c(OC)c1` (stereo not drawn): the cytotoxicity at 70.5 h is -11.6%. In the case of `COc1cccc(C(=O)NC(CC(=O)O)c2cccs2)c1OC` (stereo not drawn), the cytotoxicity at 70.5 h is -9.47%. As for `NC(=O)C1CCCN(c2ccc(CNC(=O)c3cnsn3)cc2)C1` (stereo not drawn), the cytotoxicity at 70.5 h was -7.99%.

For `NC(=O)C1CCCN(c2ccc(CNC(=O)c3csnn3)cc2)C1` (stereo not drawn), the cytotoxicity at 70.5 h is -6.98%.

Regarding `CCn1cnnc1CNC(=O)N1CCC(CN2CCCCCC2)CC1`, the cytotoxicity at 70.5 h is -7.73%. The figure for `CCn1cnnc1CNC(=O)N1CCC(CN2CCOCC2)CC1` is -14.7%; for `Cc1cnn(CC2CN(CC(=O)NCc3ccco3)CCO2)c1` (stereo not drawn) it is -15.3%.

Turning to `Cc1cnn(CC2CN(CC(=O)NCc3ccc(C)s3)CCO2)c1` (stereo not drawn), the cytotoxicity at 70.5 h was -13.6%. On to `Cc1cnn(CC2CN(CC(=O)Nc3ccnn3C(C)C)CCO2)c1` (stereo not drawn), for which the cytotoxicity at 70.5 h was -6.91%. The value for `Cc1nc(C)n(CC2CCCN2Cc2nc(C)c3ccccc3n2)n1` (stereo not drawn) was -7.3%; that for `O=C(O)CC(NC(=O)c1ccccc1OC(F)F)c1cccs1` (stereo not drawn) was 2.5%.

`COc1c(C2CCCN2C(=O)c2ccc(C#N)c(C)n2)c(C)nn1C` (stereo not drawn): the cytotoxicity at 70.5 h was -8.97%. The value for `COc1c(C2CCCN2Cc2nc(C3CC3)no2)c(C)nn1C` (stereo not drawn) was 9.69%. The value for `Cc1ccc(-c2nc(CN3CCOC(CN(C)C)C3)co2)cc1` (stereo not drawn) was -5.51%; that for `O=C(CN1CCOC(Cn2cccn2)C1)NCc1ccccn1` (stereo not drawn) was -9.46%; that for `CC(Oc1ccccc1)C(=O)N1CCCN(Cc2nccn2C)CC1` (stereo not drawn) was -10.4%. Turning to `Cc1nccn1C1CCCN(C(=O)c2cc(Cl)c3c(c2)OCO3)C1` (stereo not drawn), the cytotoxicity at 70.5 h was -5.54%. As to `CSC(C)C(=O)N1CCCN(Cc2nccn2C)CC1` (stereo not drawn), the cytotoxicity at 70.5 h was -1.04%. The figure for `Cc1cnn(CC2CN(Cc3ccccn3)CCO2)c1` (stereo not drawn) is -5.81%; for `Cc1nn(C)c(N(C)C)c1CNCc1ccccc1Cn1cccn1` it is -2.08%. With `CCN1CCC(NC(=O)CN2CCCCC2Cn2cncn2)CC1` (stereo not drawn), the cytotoxicity at 70.5 h is 0.615%. The value for `CCc1n[nH]c(C2CN(C(=O)c3cncnc3CC)CCO2)n1` (stereo not drawn) was 0.869%. The value for `Cc1cnn(CCNCc2ccc(OCc3ccncc3)cc2)c1` was 0.513%; that for `CCn1ncc2c1CCCC2NCc1ccccc1N1CCOCC1` (stereo not drawn) was 7.21%. On to `CC(C)(C)n1ncc2c1CCCC2NCc1cccc2c1OCCO2` (stereo not drawn), for which the cytotoxicity at 70.5 h was -7.2%. Take `Cc1cnn(CC2CCCN2C(=O)Cc2ccc(C)nc2)c1` (stereo not drawn): the cytotoxicity at 70.5 h is -7.79%. Consider `CCn1ncc2c1CCCC2NCc1cccc2c1OCCCO2` (stereo not drawn), for which the cytotoxicity at 70.5 h was -0.304%.

Regarding `Cc1cnn(CC2CCCN2C(=O)Cc2cccs2)c1` (stereo not drawn), the cytotoxicity at 70.5 h is -8.39%. The value for `Cc1nc(C2CCCN(C(=O)c3cc(Cl)c4c(c3)OCO4)C2)no1` (stereo not drawn) was -5.22%; that for `Cc1cnn(CC2CCCCN2CC(=O)Nc2nc(C)cs2)c1` (stereo not drawn) was -2.94%. The value for `CCOc1ncccc1CNC(=O)Nc1cc(C)nn1C` was -4.27%; that for `Cc1ccc(CNC(C)c2ccc(OCC(=O)NC3CC3)cc2)o1` (stereo not drawn) was -1.22%. For `CCN(Cc1nc2c(cnn2C)c(=O)[nH]1)c1cc(C)cc(C)c1`, the cytotoxicity at 70.5 h is 9.75%. The figure for `CC(Cc1cccc(Cl)c1)NC(=O)Nc1cnn(CC(N)=O)c1` (stereo not drawn) is -1.82%.

In the case of `COc1ccc(N(C)Cc2nc3c(cnn3C)c(=O)[nH]2)cc1OC`, the cytotoxicity at 70.5 h is 0.734%. `CC(C)NC(=O)C1CCN(c2snc3ccccc23)CC1`: the cytotoxicity at 70.5 h is -9.65%. The value for `O=C(Nc1ccc(F)cc1)N1CCN(Cc2noc(C3CC3)n2)CC1` was 1.53%. The figure for `Cc1cnn(CC2CCCCN2C(=O)Cc2c(C)nn(C)c2C)c1` (stereo not drawn) is -3.41%. As to `Cc1cnn(CC2CCCN2CC(=O)NC2CCOCC2)c1` (stereo not drawn), the cytotoxicity at 70.5 h is 0.77%. `Cc1cnn(CC2CCCCN2C(=O)c2csc(C)n2)c1` (stereo not drawn): the cytotoxicity at 70.5 h was -3.43%.

Take `Cc1cnn(CC2CCCCN2C(=O)Cc2ccc(C#N)cc2)c1` (stereo not drawn): the cytotoxicity at 70.5 h was -7.76%. The value for `Cc1cnn(CC2CCCCN2C(=O)Cc2cccc(F)c2)c1` (stereo not drawn) was -10.9%. As for `Cc1cnn(CC2CCCCN2C(=O)CC(F)(F)F)c1` (stereo not drawn), the cytotoxicity at 70.5 h was -3.76%.

For `Cc1cccc(NC(=O)N2CCN(Cc3noc(C4CC4)n3)CC2)c1`, the cytotoxicity at 70.5 h was determined as 2.6%. Take `COc1ccc(OC)c(C(O)CN2CC(n3cccn3)C2)c1` (stereo not drawn): the cytotoxicity at 70.5 h was -9.37%. The value for `Cc1ncc(CN(C)C2CCCN(Cc3noc(C4CC4)n3)C2)s1` (stereo not drawn) was -12.3%; that for `CC(C)c1ncc2c(n1)CN(Cc1cccc(OCC(N)=O)c1)CC2` was -7.58%; that for `CC(C)c1nc(C2CCCN2CC(=O)N2CCc3ccccc32)no1` (stereo not drawn) was -3.85%.

`Cc1csc(N2CCCN(C(=O)C3(C#N)CCCCC3)CC2)n1`: the cytotoxicity at 70.5 h is -9.35%. Turning to `CC(C)c1nc(C2CCCN2CC(=O)N2CCNC2=O)no1` (stereo not drawn), the cytotoxicity at 70.5 h was -3.44%. The figure for `CC(C)c1csc(C2CCCN(C(=O)Cn3ccccc3=O)C2)n1` (stereo not drawn) is 23.3%; for `CC(C)c1ncc2c(n1)CN(Cc1cccc(C#N)c1)CC2` it is 4.14%; for `CCc1nc(C2CCCN(C(=O)CCn3ccccc3=O)C2)no1` (stereo not drawn) it is -0.684%. The value for `CCn1ccnc1CN1CCN(CCOc2ccccc2OC)CC1` was 7.36%; that for `Cc1cnc(CN(C)C2CCN(CC(=O)N(C)c3nccs3)C2)o1` (stereo not drawn) was 42.1%; that for `Cc1cnc(CN(C)C2CCN(CC(=O)Nc3c(C)n[nH]c3C)C2)o1` (stereo not drawn) was 11.7%.

As to `Cc1cc(CN(C)C(=O)c2cccc(N3CCCC3=O)c2)no1`, the cytotoxicity at 70.5 h was -9.25%. With `O=C(Nc1ccccc1OC(F)F)C1=NN(c2ccccc2)C(=O)CN1`, the cytotoxicity at 70.5 h was -8.48%. The value for `CC(Cn1cccn1)NC(=O)NCCc1ccc(Cl)s1` (stereo not drawn) was -5.79%; that for `Cc1ccc(OCCNC(=O)C(C)n2cncn2)cc1` (stereo not drawn) was 10.5%. The value for `OC(COCc1cccs1)CN1CCC(c2ccn[nH]2)CC1` (stereo not drawn) was -17.6%; that for `COC(=O)c1ccc(N2CCN(C(=O)c3ccncc3)C(C)C2)cc1` (stereo not drawn) was 15.3%.

With `CC(NC(=O)N1CCC(n2cncn2)CC1)c1ccc(F)cc1F` (stereo not drawn), the cytotoxicity at 70.5 h was -13.6%. The figure for `Cc1nc(CN2CCCN(C(=O)C3(C#N)CCCCC3)CC2)cs1` is -16.4%. On to `O=C(NCCNc1ncccn1)N(Cc1ccc(F)cc1F)C1CC1`, for which the cytotoxicity at 70.5 h was -18.1%. Take `CN(C)C(=O)N1CCN(Cc2noc(Cc3ccccc3)n2)CC1`: the cytotoxicity at 70.5 h is -5.82%.

Consider `O=C(CCCOCc1ccccc1)N1CCCC1c1ccccn1` (stereo not drawn), for which the cytotoxicity at 70.5 h was -12.6%.

Regarding `Cn1cc(C2CCCN2C(=O)CCCOCc2ccccc2)cn1` (stereo not drawn), the cytotoxicity at 70.5 h was found to be 4.25%. On to `CCc1nc2n(n1)CC(NCC(=O)Nc1nccs1)CC2` (stereo not drawn), for which the cytotoxicity at 70.5 h was found to be 8%. `O=C(CN1CCCCC1Cn1cncn1)NCCc1ccc(F)cc1` (stereo not drawn): the cytotoxicity at 70.5 h came out at 32.1%. The value for `CCN(C(=O)CS(=O)(=O)Cc1cc(Cl)c2c(c1)OCCCO2)C1CC1` was 0.0743%.
